Assay [1] has as its system epithelial breast carcinoma cell line MDAMB-435. Kind of assay: Antiproliferative activity, growth of MDAMB-435 cells (MTT). It counts as cell-based. Conditions: Homo sapiens, MDA-MB-435, 120 h, MDAMB435, day 5 post-drug addition, 0.1% DMSO, * = average of two separate experiments. The protocol:
(§1) The epithelial breast carcinoma cell line, MDAMB-435, and the colon carcinoma cell line, SW480, were purchased from ATCC (American Type Cell Culture Collection) and were grown in culture in medium as recommended by ATCC. For analysis of the effect of various compounds on growth of these cells, the cells were plated at a concentration of 1500 cells/well in a 96 well tissue culture plate ("test plate"). The day after the cells were plated, the compounds to be analyzed were dissolved in 100% DMSO (dimethyl sulfoxide) to yield at 10 mM stock solution. Each compound was diluted in H2 O to 1 mM and was added to triplicate wells in the first row of a 96 well master plate which contains medium to yield a final concentration of 40 μM. The compounds were then serially diluted in medium in the "master plate". The diluted compound(s) were then transferred to test plates containing cells. A row of vehicle "control cells" received DMSO. The final concentration of DMSO in each well was 0.1%. At day 5 post-drug addition, the plates containing MDA-MB435 cells were analyzed as follows. Plates containing SW480 cells were analyzed at day 7 post drug addition as follows.
(§2) MTT (3-(4-5methylthiazole-2-yl)-2,5-diphenyl tetrazolium bromide; thiazolyl blue) was added to each well to yield a final concentration of 1 mg/ml. The plate was then incubated at 37° C. for 21/2-3 hours. The MTT containing medium was then removed and 50 μl of 100% ethanol was added to each well to dissolve the formazan. The absorbences were then read using an automated plate reader (Bio-tek microplate reader). IC50 's were calculated using the Reed and Munsch equation, see Am. J. Hygiene Vol. 27 pgs. 493-497, 1938.

Assay [2] concerns colon carcinoma cell line SW480. Kind of assay: Antiproliferative activity, growth of SW480 cells (MTT). In kind it is cell-based. The settings on record: Homo sapiens, 168 h, day 7 post drug addition, 0.1% DMSO, * = average of two separate experiments. Here is the method:
as §1, §2

Broadly, the IC50 is the midpoint of a concentration-inhibition curve. A high value points to weaker potency.

Molecule `Cn1cc(C2=C(c3cn(C)c4cc(C(N)=O)ccc34)C(=O)NC2=O)c2ccccc21` [Ex 6, 1-Methyl-3-[4-(1-methyl-1H-indol-3-yl)-2,5-dioxo-2,5-dihydro-1H-pyrrol-3-yl]-1H-indole-6-carboxylic acid amide] returned an IC50 in assay [1] of 0.7 µM.
Take `CC(=O)OCc1ccc2c(C3=C(c4cn(C)c5ccccc45)C(=O)NC3=O)cn(C)c2c1` [Ex 3, Acetic acid 1-methyl-3-[4-(1-methyl-1H-indol-3-yl)-2,5-dioxo-2,5-dihydro-1H-pyrrol-3-yl]-1H-indol-6-yl methyl ester]: the 50% inhibitory concentration (IC50) in assay [2] was 0.83 µM; in assay [1] it was 0.3 µM.
`Cn1cc(C2=C(c3cn(C)c4cc(C=O)ccc34)C(=O)NC2=O)c2ccccc21` [Ex 4b, 1-methyl-3-[4-(1-methyl-1H-indol-3-yl)-2,5-dioxo-2,5-dihydro-1H-pyrrol-3-yl]-1H-indole-6-carboxaldehyde]: the IC50 in assay [2] is 0.054 µM; in assay [1] it was 0.032 µM.
For `Cn1cc(C2=C(c3cn(C)c4cc(C#N)ccc34)C(=O)NC2=O)c2ccccc21` [Ex 1, 1-methyl-3-[4-(1-methyl-1H-indol-3-yl)-2,5-dioxo-2,5-dihydro-1H-pyrrol-3-yl]-1H-indole-6-carbonitrile] the same measures were 0.008 µM and 0.03 µM.
The matching figures for `COC(=O)c1ccc2c(C3=C(c4cn(C)c5ccccc45)C(=O)NC3=O)cn(C)c2c1` [Ex 4a, 1-methyl-3-[4-(1-methyl-1H-indol-3-yl)-2,5-dioxo-2,5-dihydro-1H-pyrrol-3-yl]-1H-indole-6-carboxylic acid methyl ester]: 0.01 µM and 0.01 µM.
In the case of `Cn1cc(C2=C(c3cn(C)c4cc(CO)ccc34)C(=O)NC2=O)c2ccccc21` [Ex 5, 3-(6-hydroxymethyl-1-methyl-1H-indol-3-yl)-4-(1-methyl-1H-indol-3-yl)pyrrole-2,5-dione], the results for the 50% inhibitory concentration (IC50) in assay [2] and in assay [1] were 0.35 µM and 0.42 µM, respectively.
For the molecule `COCc1ccc2c(C3=C(c4cn(C)c5ccccc45)C(=O)NC3=O)cn(C)c2c1` [Ex 4c, 3-(6-Methoxymethyl-1-methyl-1H-indol-3-yl)-4-(1-methyl-1H-indol-3-yl)-pyrrole-2,5-dione], the half-inhibitory concentration (IC50) in assay [2] was 0.11 µM; in assay [1], 0.07 µM.

Values taken from patent US5856517A, “Substituted pyrroles” (Hoffmann-La Roche Inc., priority 1997, dated 1999).
